Broadly, the melting point is the temperature of the solid-liquid transition.

Where two headings read alike, the source gives them in different places.

Results on 17 compounds are retold here after paper PMC9033141, “Beta and Gamma Amino Acid-Substituted Benzenesulfonamides as Inhibitors of Human Carbonic Anhydrases” (Pharmaceuticals, 2022).

The target of one data set is T1, CAI (Homo sapiens, UniProt P00915).
T1 construct: made in house; host or cells: E. coli
As to the kind of experiment: biochemical. Type of data set: binding. Particulars: FTSA, pH 7.0, 37 °C; read-out: Observed Dissociation Constant (Kd_obs), CAI.

Another data set deals with T2, CAII (Homo sapiens, UniProt P00918).
T2 construct: made in house; host or cells: E. coli
As to the kind of experiment: biochemical. Particulars: FTSA, pH 7.0, 37 °C; read-out: Observed Dissociation Constant (Kd_obs), CAII. The class given is binding.

The next data set has as its target T3, CAIX (Homo sapiens, UniProt Q16790).
T3 construct: made in house
Kind of data set: biochemical. Type of data set: binding. Particulars: FTSA, pH 7.0, 37 °C.

The next data set deals with T4, CAXII (Homo sapiens, UniProt O43570).
T4 construct: made in house; host or cells: E. coli
Kind of data set: biochemical. The class given is binding. Particulars: FTSA, pH 7.0, 37 °C; read-out: Observed Dissociation Constant (Kd_obs), CAXII.

The target of another data set is CAXIII (Homo sapiens, UniProt Q8N1Q1). As to the kind of experiment: biochemical. Particulars: Observed Dissociation Constant (Kd_obs), FTSA, pH 7.0, 37 °C.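 Also: recombinant human CAXIII melting temperature tracked by ANS fluorescence in thermal shift assay, Tm fitted against ligand concentration, intrinsic value corrects Kd for deprotonated sulfonamide and Zn-bound water fractions.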
The mark [1] stands for this setting: read-out: Observed Dissociation Constant (Kd_obs), CAIX.
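For Observed Dissociation Constant (Kd obs), CAII in this document: recombinant human CAII, thermal shift with ANS dye fluorescence, Kd_obs from fitting melting temperature versus ligand concentration, intrinsic values corrected for deprotonated sulfonamide and Zn-bound water fractions.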
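For Observed Dissociation Constant (Kd obs), CAXII in this document: recombinant CAXII made in E. coli, ANS-fluorescence thermal shift with affinity fitted from Tm versus ligand concentration, intrinsic energy from Kd_obs corrected for deprotonated sulfonamide and Zn-water fractions.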

T4 sequence (O43570 25-354): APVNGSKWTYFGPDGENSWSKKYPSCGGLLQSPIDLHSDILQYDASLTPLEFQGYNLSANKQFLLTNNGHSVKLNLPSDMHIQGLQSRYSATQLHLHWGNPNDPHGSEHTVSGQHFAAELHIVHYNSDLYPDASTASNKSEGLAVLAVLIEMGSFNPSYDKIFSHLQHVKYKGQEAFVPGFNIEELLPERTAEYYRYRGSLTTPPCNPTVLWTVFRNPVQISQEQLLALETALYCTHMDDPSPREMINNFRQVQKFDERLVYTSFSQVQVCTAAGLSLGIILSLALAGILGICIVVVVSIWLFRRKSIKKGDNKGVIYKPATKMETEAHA
CAXIII, sequence (Q8N1Q1 whole entry): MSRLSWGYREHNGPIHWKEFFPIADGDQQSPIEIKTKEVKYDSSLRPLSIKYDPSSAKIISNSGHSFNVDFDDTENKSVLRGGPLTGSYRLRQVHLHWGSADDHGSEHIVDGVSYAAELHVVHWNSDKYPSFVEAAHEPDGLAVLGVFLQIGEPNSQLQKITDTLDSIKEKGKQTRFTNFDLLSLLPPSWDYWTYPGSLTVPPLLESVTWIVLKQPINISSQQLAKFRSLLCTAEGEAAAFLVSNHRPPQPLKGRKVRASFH
T1 sequence (P00915 whole entry): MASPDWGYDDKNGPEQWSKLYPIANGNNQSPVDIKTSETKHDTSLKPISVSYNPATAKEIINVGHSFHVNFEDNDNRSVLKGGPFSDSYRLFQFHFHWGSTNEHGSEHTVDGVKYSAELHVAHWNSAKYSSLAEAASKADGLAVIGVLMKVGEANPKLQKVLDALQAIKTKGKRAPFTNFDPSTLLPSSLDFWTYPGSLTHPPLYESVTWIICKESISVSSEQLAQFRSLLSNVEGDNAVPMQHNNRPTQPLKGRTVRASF
Procedure for CAII: (§1) Human CA isozymes were expressed in E. coli (CAI, II, III, IV, VA, VB, VII, XII, XIII, XIV) or mammalian cells (CAVI and CAIX), chromatographically purified following the published protocols [47], and stored at −80 °C. The protein concentration was determined by UV absorption at 280 nm using Beer–Lambert law.
(§2) The QIAGEN Rotor-Gene Q was used to carry out the experiments, with a blue channel used for excitation (365 nm) and detection (460 nm). FTSA in this case relies on an extrinsic probe, 8-anilino-1-naphthalenesulfonate (ANS), to detect the fluorescence increase during protein denaturation, from which protein melting temperature (Tm) can be determined. […] The observed affinity of ligands for CAs was determined by plotting the Tm as a function of ligand concentration and then fitting a curve as described previously [48]. […] Samples were heated from 25 °C to 99 °C at the speed of 1 °C/min.
(§3) The intrinsic thermodynamic parameters were calculated as described in [40]. The intrinsic reaction of inhibitor binding to CA is shown in Equation (1).
(§4) When calculating Kd_int values, these protein and ligand fractions from Equation (1) have to be accounted for (Equations (2) and (3)). The intrinsic dissociation constant is calculated by multiplying Kd_obs value by the corresponding fractions of protein and ligand (Equation (4)). (2) fRSO2NH^−=10^pH−pKa_RSO2NH2/1+10^pH−pKa_RSO2NH2 (3) fCAZnH2O=1−10^pH−pKa_CAZnH2O/1+10^pH−pKa_CAZnH2O (4) Kd_int=Kd_obs×fRSO2NH^−×fCAZnH2O (5) ΔGint0=RTlnKd_int
(§5) The intrinsic standard Gibbs energy changes upon binding were calculated using Equation (5). Here, R—universal ideal gas constant (8.3144 J/mol·K), T—absolute temperature (310.15 K).
Procedure for CAXIII: as §1, §2, §3, §4, §5

In turn, `NS(=O)(=O)c1ccc(NCC(CC(=O)NN=Cc2ccccc2Cl)C(=O)NN=Cc2ccccc2Cl)c(Cl)c1` (stereo not drawn) [Compound 10b, 3-Chloro-4-((2-(2-(2-chlorobenzylidene)hydrazine-1-carbonyl)-4-(2-(2-chlorobenzylidene)hydrazineyl)-4-oxobutyl)amino)benzenesulfonamide] showed a melting point of 203 to 204 °C. The Kd at CAI turned out to be 1.7 µM. At CAII, the Kd is 0.33 µM. The Kd at CAIX (setting [1]) was 0.13 µM. In addition, at CAXII, the Kd is 50 µM. Further, the Kd at CAXIII was determined as 0.13 µM.
Take `CC(=NNC(=O)CC(CNc1ccc(S(N)(=O)=O)cc1Cl)C(=O)NN=C(C)c1ccccc1)c1ccccc1` (stereo not drawn) [Compound 5b, 3-Chloro-4-((4-oxo-2-(2-(1-phenylethylidene)hydrazine-1-carbonyl)-4-(2-(1-phenylethylidene)hydrazineyl)butyl)amino)benzenesulfonamide]: the melting point was 158 to 159 °C. Moreover, on CAI, the Kd was determined as 4 µM. Also, the Kd at CAII is 0.25 µM. In addition, the Kd at CAIX (setting [1]) came out at 0.18 µM. Moreover, the Kd on CAXII is 6.7 µM. The Kd on CAXIII amounted to 0.4 µM.
The compound `NS(=O)(=O)c1ccc(NCC(CC(=O)NN=Cc2ccc(Cl)cc2)C(=O)NN=Cc2ccc(Cl)cc2)cc1` (stereo not drawn) [Compound 12a, 4-((2-(2-(4-Chlorobenzylidene)hydrazine-1-carbonyl)-4-(2-(4-chlorobenzylidene)hydrazineyl)-4-oxobutyl)amino)benzenesulfonamide] displayed a melting point of 179 to 180 °C. In addition, the Kd on CAI stood at 36 µM. Further, the Kd on CAII came to 5 µM. The Kd on CAIX (setting [1]) turned out to be 1 µM. The Kd on CAXII was 66 µM. Moreover, the Kd at CAXIII was 17 µM.
For the compound `NS(=O)(=O)c1ccc(NCC(CC(=O)NN=Cc2ccccc2O)C(=O)NN=Cc2ccccc2O)c(Cl)c1` (stereo not drawn) [Compound 7b, 3-Chloro-4-((2-(2-(2-hydroxybenzylidene)hydrazine-1-carbonyl)-4-(2-(2-hydroxybenzylidene)hydrazineyl)-4-oxobutyl)amino)benzenesulfonamide], the melting point is 204 to 205 °C. The Kd on CAI amounted to 1 µM. Moreover, the Kd on CAII worked out at 0.17 µM. Besides, the Kd on CAIX (setting [1]) worked out at 0.067 µM. Moreover, the Kd on CAXII was found to be 5 µM. Moreover, the Kd at CAXIII amounted to 0.17 µM.
Compound `NS(=O)(=O)c1ccc(NCC(CC(=O)NN=Cc2ccc(F)cc2)C(=O)NN=Cc2ccc(F)cc2)cc1` (stereo not drawn) [Compound 13a, 4-((2-(2-(4-Fluorobenzylidene)hydrazine-1-carbonyl)-4-(2-(4-fluorobenzylidene)hydrazineyl)-4-oxobutyl)amino)benzenesulfonamide] came in with a melting point of 153 to 154 °C. For the same compound, the Kd on CAI was found to be 22 µM. The Kd on CAII came to 2.9 µM. Moreover, the Kd at CAIX (setting [1]) was 1.4 µM. Moreover, the Kd at CAXII stood at 23 µM. Moreover, the Kd at CAXIII was 20 µM.
On to `Cn1c(CC(CNc2ccc(S(N)(=O)=O)cc2)c2n[nH]c(=S)n2C)n[nH]c1=S` (stereo not drawn) [Compound 24a, 4-((2,3-bis(4-Methyl-5-thioxo-4,5-dihydro-1H-1,2,4-triazol-3-yl)propyl)amino)benzenesulfonamide], for which the melting point lay in the range of 170 to 171 °C. Further, the Kd on CAI worked out at 43 µM. Also, the Kd on CAII is 6.7 µM. For the same compound, the Kd on CAIX (setting [1]) was determined as 0.91 µM. For the same compound, the Kd at CAXII was 3.3 µM. For the same compound, the Kd on CAXIII came out at 19 µM.
`NS(=O)(=O)c1ccc(NCC(Cc2n[nH]c(=S)n2-c2ccccc2)c2n[nH]c(=S)n2-c2ccccc2)cc1` (stereo not drawn) [Compound 25a, 4-((2,3-bis(4-Phenyl-5-thioxo-4,5-dihydro-1H-1,2,4-triazol-3-yl)propyl)amino)benzenesulfonamide] had a melting point of 258 to 259 °C. Further, the Kd at CAI was 100 µM. Moreover, the Kd at CAII turned out to be 3.3 µM. At CAIX (setting [1]), the Kd was found to be 0.1 µM. Moreover, the Kd on CAXII is 4 µM. This compound also had a Kd on CAXIII of 25 µM.
In turn, `NS(=O)(=O)c1ccc(NCC(CC(=O)NN=Cc2ccccc2[N+](=O)[O-])C(=O)NN=Cc2ccccc2[N+](=O)[O-])c(Cl)c1` (stereo not drawn) [Compound 15b, 3-Chloro-4-((2-(2-(2-nitrobenzylidene)hydrazine-1-carbonyl)-4-(2-(2-nitrobenzylidene)hydrazineyl)-4-oxobutyl)amino)benzenesulfonamide] registered a melting point of 178 to 179 °C. In addition, at CAI, the Kd worked out at 2.5 µM. On CAII, the Kd amounted to 0.5 µM. The Kd on CAIX (setting [1]) amounted to 0.14 µM. The Kd on CAXII stood at 50 µM. The same compound showed a Kd at CAXIII of 0.4 µM.
With `NS(=O)(=O)c1ccc(NCC(CC(=O)NN=Cc2ccc(O)cc2)C(=O)NN=Cc2ccc(O)cc2)cc1` (stereo not drawn) [Compound 9a, 4-((2-(2-(4-Hydroxybenzylidene)hydrazine-1-carbonyl)-4-(2-(4-hydroxybenzylidene)hydrazineyl)-4-oxobutyl)amino)benzenesulfonamide], the melting point was 186 to 187 °C. For the same compound, the Kd at CAI came to 5.9 µM. In addition, on CAII, the Kd was determined as 1.3 µM. For the same compound, the Kd on CAIX (setting [1]) came to 0.5 µM. For the same compound, the Kd at CAXII is 25 µM. Moreover, on CAXIII, the Kd was determined as 4.3 µM.
For `CCC(C)=NN1C(=O)CC(CNc2ccc(S(N)(=O)=O)cc2)C1=O` (stereo not drawn) [Compound 4a, 4-(((1-(Butan-2-ylideneamino)-2,5-dioxopyrrolidin-3-yl)methyl)amino)benzenesulfonamide], the melting point was 117 to 118 °C. At CAI, the Kd was determined as 18 µM. For the same compound, the Kd on CAII was found to be 40 µM. In addition, on CAIX (setting [1]), the Kd amounted to 2 µM. Moreover, the Kd at CAXII was found to be 18 µM. The compound further showed a Kd at CAXIII of 20 µM.
Take `NS(=O)(=O)c1ccc(NCC(CC(=O)NN=Cc2cccc([N+](=O)[O-])c2)C(=O)NN=Cc2cccc([N+](=O)[O-])c2)c(Cl)c1` (stereo not drawn) [Compound 16b, 3-Chloro-4-((2-(2-(3-nitrobenzylidene)hydrazine-1-carbonyl)-4-(2-(3-nitrobenzylidene)hydrazineyl)-4-oxobutyl)amino)benzenesulfonamide]: the melting point lay in the range of 199 to 200 °C. At CAI, the Kd was determined as 3.3 µM. In addition, the Kd on CAII came to 0.5 µM. The Kd on CAIX (setting [1]) turned out to be 0.13 µM. Moreover, at CAXII, the Kd is 130 µM. Also, the Kd on CAXIII amounted to 1 µM.
With `NS(=O)(=O)c1ccc(NCC(CC(=O)NN=Cc2ccccc2[N+](=O)[O-])C(=O)NN=Cc2ccccc2[N+](=O)[O-])cc1` (stereo not drawn) [Compound 15a, 4-((2-(2-(2-Nitrobenzylidene)hydrazine-1-carbonyl)-4-(2-(2-nitrobenzylidene)hydrazineyl)-4-oxobutyl)amino)benzenesulfonamide], the melting point lay in the range of 197 to 198 °C. Further, the Kd on CAI came out at 13 µM. Further, at CAII, the Kd amounted to 3.3 µM. Also, on CAIX (setting [1]), the Kd is 1 µM. Also, the Kd at CAXII was found to be 50 µM. The compound also displayed a Kd at CAXIII of 6.7 µM.
In turn, `CCC(C)=NN1C(=O)CC(CNc2ccc(S(N)(=O)=O)cc2Cl)C1=O` (stereo not drawn) [Compound 4b, 4-(((1-(Butan-2-ylideneamino)-2,5-dioxopyrrolidin-3-yl)methyl)amino)-3-chlorobenzenesulfonamide] came in with a melting point of 92 to 93 °C. For the same compound, the Kd at CAI was 2.9 µM. In addition, the Kd on CAII is 0.33 µM. In addition, the Kd on CAIX (setting [1]) came out at 0.25 µM. At CAXII, the Kd came to 4 µM. On CAXIII, this compound returned a Kd of 1.3 µM.
Compound `Cc1ccc(C)n1NC(=O)CC(CNc1ccc(S(N)(=O)=O)cc1)C(=O)Nn1c(C)ccc1C` (stereo not drawn) [Compound 19a, N^1,N^4-bis(2,5-Dimethyl-1H-pyrrol-1-yl)-2-(((4-sulfamoylphenyl)amino)methyl)succinamide] yielded a melting point of 195 to 196 °C. In addition, the Kd at CAI worked out at 10 µM. The Kd at CAII was found to be 1.7 µM. For the same compound, the Kd on CAIX (setting [1]) came out at 0.56 µM. On CAXII, the Kd stood at 10 µM. The compound also registered a Kd at CAXIII of 4 µM.
The compound `NS(=O)(=O)c1ccc(NCC(CC(=O)NN=Cc2cccc(O)c2)C(=O)NN=Cc2cccc(O)c2)cc1` (stereo not drawn) [Compound 8a, 4-((2-(2-(3-Hydroxybenzylidene)hydrazine-1-carbonyl)-4-(2-(3-hydroxybenzylidene)hydrazineyl)-4-oxobutyl)amino)benzenesulfonamide] registered a melting point of 192 to 193 °C. Moreover, the Kd on CAI turned out to be 10 µM. Further, on CAII, the Kd was 2 µM. For the same compound, the Kd at CAIX (setting [1]) turned out to be 0.67 µM. The Kd on CAXII is 33 µM. In addition, the Kd at CAXIII was 5 µM.
In the case of `NS(=O)(=O)c1ccc(NCC(CC(=O)NN=Cc2ccccc2Cl)C(=O)NN=Cc2ccccc2Cl)cc1` (stereo not drawn) [Compound 10a, 4-((2-(2-(2-Chlorobenzylidene)hydrazine-1-carbonyl)-4-(2-(2-chlorobenzylidene)hydrazineyl)-4-oxobutyl)amino)benzenesulfonamide], the melting point lay in the range of 174 to 175 °C. Also, the Kd at CAI is 17 µM. Besides, the Kd on CAII was 2.5 µM. At CAIX (setting [1]), the Kd came to 0.5 µM. In addition, the Kd on CAXII came to 50 µM. Further, the Kd at CAXIII came out at 1.7 µM.
In the case of `NS(=O)(=O)c1ccc(NCC(CC(=O)NN=Cc2ccc([N+](=O)[O-])cc2)C(=O)NN=Cc2ccc([N+](=O)[O-])cc2)c(Cl)c1` (stereo not drawn) [Compound 17b, 3-Chloro-4-((2-(2-(4-nitrobenzylidene)hydrazine-1-carbonyl)-4-(2-(4-nitrobenzylidene)hydrazineyl)-4-oxobutyl)amino)benzenesulfonamide], the melting point lay in the range of 220 to 221 °C. Further, on CAI, the Kd stood at 2.6 µM. For the same compound, on CAII, the Kd is 0.57 µM. Also, the Kd at CAIX (Observed Dissociation Constant (Kd_obs), CAIX) is 1.4 µM. For the same compound, the Kd at CAXII amounted to 58 µM. Further, the Kd on CAXIII was 1.4 µM.
